Results: patent US20240209028A1, “CNP COMPOUNDS” (priority 2022, published 2024)
Starred links: 1 amine or outer side, 2 acyl side, 3 side chain; linkers in the order of their positions; H or OH if unused. Positions of bridges follow the written chain, without caps; N, C: chain ends. Non-standard residues stand in square brackets, D forms with d. Residues, ends and D or L forms follow the SMILES beside them. No end group written: not given here. *: point of attachment. C18 diacid = O=C(O)CCCCCCCCCCCCCCCCC(=O)*; γGlu = O=C(O)[C@H](CCC(=O)[*:2])N[*:1]; AEEA = NCCOCCOCC(=O)O

Target: T1, human natriuretic peptide receptor 2 (hNPR2) (Homo sapiens, UniProt P20594)
T1 construct: expressed in transfected cells; host or cells: HEK293 (ATCC CRL-1573), clone 35, co-transfected with pGloSensor-42F
T1 sequence (P20594 23-1047): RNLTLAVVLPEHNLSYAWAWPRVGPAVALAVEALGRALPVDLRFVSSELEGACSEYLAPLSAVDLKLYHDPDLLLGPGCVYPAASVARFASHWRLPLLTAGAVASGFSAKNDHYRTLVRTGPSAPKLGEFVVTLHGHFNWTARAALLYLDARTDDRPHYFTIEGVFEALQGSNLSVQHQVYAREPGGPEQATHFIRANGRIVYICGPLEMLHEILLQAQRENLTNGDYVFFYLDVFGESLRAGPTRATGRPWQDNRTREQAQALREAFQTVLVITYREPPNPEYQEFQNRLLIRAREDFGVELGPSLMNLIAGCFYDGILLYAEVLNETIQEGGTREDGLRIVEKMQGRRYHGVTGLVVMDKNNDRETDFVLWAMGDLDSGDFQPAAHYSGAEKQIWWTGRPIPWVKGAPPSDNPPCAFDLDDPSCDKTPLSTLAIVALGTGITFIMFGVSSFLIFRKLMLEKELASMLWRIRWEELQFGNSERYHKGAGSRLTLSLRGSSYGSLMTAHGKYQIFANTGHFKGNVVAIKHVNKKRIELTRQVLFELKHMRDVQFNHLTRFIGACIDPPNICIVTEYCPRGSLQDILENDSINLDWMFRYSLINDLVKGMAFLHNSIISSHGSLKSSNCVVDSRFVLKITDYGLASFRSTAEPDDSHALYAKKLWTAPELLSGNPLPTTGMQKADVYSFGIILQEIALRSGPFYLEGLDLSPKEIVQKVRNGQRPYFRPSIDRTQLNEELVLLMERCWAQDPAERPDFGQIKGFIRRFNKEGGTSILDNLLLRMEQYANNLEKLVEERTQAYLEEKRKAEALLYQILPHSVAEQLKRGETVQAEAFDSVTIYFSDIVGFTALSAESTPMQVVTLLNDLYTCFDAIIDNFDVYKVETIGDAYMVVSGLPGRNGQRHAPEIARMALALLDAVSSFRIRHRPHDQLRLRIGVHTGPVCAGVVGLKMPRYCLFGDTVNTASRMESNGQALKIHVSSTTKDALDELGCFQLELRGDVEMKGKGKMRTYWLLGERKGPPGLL
Experiment: In vitro hNPR2 activity assay (cGMP GloSensor reporter, HEK293)
Type: cell-based
Details: for EC50: 0% HSA, HEK293-hNPR2/GloSensor cells; for hNPR2 0% HSA. [EC50% rel CNP]: potency relative to CNP22 (0065)
Outline: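 Potency is the EC50 from a four-parameter logistic fit, also expressed relative to the in-plate CNP22 control (×100), with at least two replicates. Compounds (ten concentrations, […], HSA-free diluent with 1% OVA, 0.01% Tween20) were incubated 30 min at 37 °C on HEK293 cells co-expressing hNPR2 and a GloSensor cGMP luciferase. Luminescence detected with Bright-Glo.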

`CC[C@H](C)[C@@H]1NC(=O)[C@H](CCCNC(=N)N)NC(=O)[C@H](CCC(=O)O)NC(=O)[C@H](CC(C)C)NC(=O)[C@@H]2CCCN2C(=O)[C@H](CC(C)C)NC(=O)CNC(=O)[C@H](Cc2ccccc2)NC(=O)[C@@H](NC(=O)CNC(=O)[C@H](CCC(N)=O)NC(=O)[C@H](CO)NC(=O)[C@H](CO)NC(=O)CNC(=O)[C@H](CCCCN)NC(=O)[C@H](CCCCN)NC(=O)[C@H](CCC(N)=O)NC(=O)[C@H](C)NC(=O)CNC(=O)[C@@H]2CCCN2C(=O)[C@H](C)NC(=O)[C@H](CCC(N)=O)NC(=O)CNC(=O)COCCOCCNC(=O)COCCOCCNC(=O)CC[C@H](NC(=O)CCCCCCCCCCCCCCCCC(=O)O)C(=O)O)CSSC[C@@H](C(=O)O)NC(=O)CNC(=O)[C@H](CC(C)C)NC(=O)CNC(=O)[C@H](CO)NC(=O)[C@H](CC(C)C)NC(=O)[C@H](CO)NC(=O)CNC1=O` [compound 1486] ({C18 diacid-γGlu-AEEA-AEEA}-GQAPGAQKKGSSQGCFGLPLERIGSLSGLGC-OH; disulfide 15-31; C-terminus assumed) was tested. Which EC50 did it give?
Its EC50 is 0.14 nM.

What about the “hNPR2 0% HSA. [EC50% rel CNP]” value of the same compound?
Its value is 6.0%.

How did the “hNPR2 0% HSA. [EC50% rel CNP]” value turn out when `CC[C@H](C)[C@@H]1NC(=O)[C@H](CCCNC(=N)N)NC(=O)[C@H](CC(=O)O)NC(=O)[C@H](CC(C)C)NC(=O)[C@@H]2CCCN2C(=O)[C@H](CC(C)C)NC(=O)CNC(=O)[C@H](Cc2ccccc2)NC(=O)[C@@H](NC(=O)CNC(=O)[C@H](CCC(N)=O)NC(=O)[C@H](CO)NC(=O)[C@H](CC(C)C)NC(=O)CNC(=O)[C@H](CCCCN)NC(=O)[C@H](CCCCN)NC(=O)[C@H](CCC(N)=O)NC(=O)[C@H](C)NC(=O)CNC(=O)[C@@H]2CCCN2C(=O)[C@H](C)NC(=O)[C@H](CCC(N)=O)NC(=O)CNC(=O)[C@@H]2CCCN2C(=O)[C@H](C)NC(=O)[C@H](CCC(N)=O)NC(=O)CNC(=O)[C@@H]2CCCN2C(=O)[C@H](C)NC(=O)[C@H](CCC(N)=O)NC(=O)CNC(=O)COCCOCCNC(=O)COCCOCCNC(=O)CC[C@H](NC(=O)CCCCCCCCCCCCCCCCC(=O)O)C(=O)O)CSSC[C@@H](C(=O)O)NC(=O)CNC(=O)[C@H](CC(C)C)NC(=O)CNC(=O)[C@H](CO)NC(=O)[C@H](CC(C)C)NC(=O)[C@H](CO)NC(=O)CNC1=O` [compound 1487] ({C18 diacid-γGlu-AEEA-AEEA}-GQAPGQAPGQAPGAQKKGLSQGCFGLPLDRIGSLSGLGC-OH; disulfide 23-39) was run?
The value was 22.0%.

`CC[C@H](C)[C@@H]1NC(=O)[C@H](CCCNC(=N)N)NC(=O)[C@H](CC(=O)O)NC(=O)[C@H](CC(C)C)NC(=O)[C@@H]2CCCN2C(=O)[C@H](CC(C)C)NC(=O)CNC(=O)[C@H](Cc2ccccc2)NC(=O)[C@@H](NC(=O)CNC(=O)[C@H](CCC(N)=O)NC(=O)[C@H](CO)NC(=O)[C@H](CC(C)C)NC(=O)CNC(=O)[C@H](CCCCN)NC(=O)[C@H](CCCCN)NC(=O)[C@H](CCC(N)=O)NC(=O)[C@H](C)NC(=O)CNC(=O)[C@@H]2CCCN2C(=O)[C@H](C)NC(=O)[C@H](CCC(N)=O)NC(=O)CNC(=O)[C@@H]2CCCN2C(=O)[C@H](C)NC(=O)[C@H](CCC(N)=O)NC(=O)CNC(=O)[C@@H]2CCCN2C(=O)[C@H](C)NC(=O)[C@H](CCC(N)=O)NC(=O)CNC(=O)CC[C@H](NC(=O)CCCCCCCCCCCCCCCCC(=O)O)C(=O)O)CSSC[C@@H](C(=O)O)NC(=O)CNC(=O)[C@H](CC(C)C)NC(=O)CNC(=O)[C@H](CO)NC(=O)[C@H](CC(C)C)NC(=O)[C@H](CO)NC(=O)CNC1=O` [compound 1488] ({C18 diacid-γGlu}-GQAPGQAPGQAPGAQKKGLSQGCFGLPLDRIGSLSGLGC-OH; disulfide 23-39) was tested. Which “hNPR2 0% HSA. [EC50% rel CNP]” value did it give?
Its value is 29.3%.

`CC[C@H](C)[C@@H]1NC(=O)[C@H](CCCNC(=N)N)NC(=O)[C@H](CCC(=O)O)NC(=O)[C@H](CC(C)C)NC(=O)[C@@H]2CCCN2C(=O)[C@H](CC(C)C)NC(=O)CNC(=O)[C@H](Cc2ccccc2)NC(=O)[C@@H](NC(=O)CNC(=O)[C@H](CCC(N)=O)NC(=O)[C@H](CO)NC(=O)[C@H](CC(C)C)NC(=O)CNC(=O)[C@H](CCCCN)NC(=O)[C@H](CCCCN)NC(=O)[C@H](CCC(N)=O)NC(=O)[C@H](C)NC(=O)CNC(=O)[C@H](CCCCN)NC(=O)[C@H](Cc2ccc(O)cc2)NC(=O)COCCOCCNC(=O)COCCOCCNC(=O)COCCOCCNC(=O)COCCOCCNC(=O)CC[C@H](NC(=O)CC[C@H](NC(=O)CCCCCCCCCCCCCCCCC(=O)O)C(=O)O)C(=O)O)CSSC[C@@H](C(=O)O)NC(=O)CNC(=O)[C@H](CC(C)C)NC(=O)CNC(=O)[C@H](CO)NC(=O)[C@H](CC(C)C)NC(=O)[C@H](CO)NC(=O)CNC1=O` [compound 1493] ({C18 diacid-γGlu-γGlu-AEEA-AEEA-AEEA-AEEA}-YKGAQKKGLSQGCFGLPLERIGSLSGLGC-OH; disulfide 13-29; C-terminus assumed) was tested. Which EC50 did it give?
The EC50 was 0.8 nM.

And the “hNPR2 0% HSA. [EC50% rel CNP]” value?
The value was 11.5%.

What does the source list for `CC[C@H](C)[C@@H]1NC(=O)[C@H](CCCNC(=N)N)NC(=O)[C@H](CC(=O)O)NC(=O)[C@H](CC(C)C)NC(=O)[C@H](CCCCN)NC(=O)[C@H](CC(C)C)NC(=O)CNC(=O)[C@H](Cc2ccccc2)NC(=O)[C@@H](NC(=O)CNC(=O)[C@H](CCCCN)NC(=O)[C@H](CO)NC(=O)[C@H](CC(C)C)NC(=O)CNC(=O)[C@H](CCCCN)NC(=O)[C@H](CCCCN)NC(=O)[C@H](CC(N)=O)NC(=O)[C@H](C)NC(=O)CNC(=O)[C@H](CCCCN)NC(=O)[C@H](Cc2ccc(O)cc2)NC(=O)[C@H](CCCCN)NC(=O)[C@H](CCCNC(=N)N)NC(=O)[C@H](C)NC(=O)[C@H](CC(N)=O)NC(=O)[C@@H]2CCCN2C(=O)[C@H](Cc2c[nH]cn2)NC(=O)[C@H](CCC(=O)O)NC(=O)[C@@H](N)CCC(N)=O)CSSC[C@@H](C(=O)O)NC(=O)CNC(=O)[C@H](CC(C)C)NC(=O)CNC(=O)[C@H](CO)NC(=O)[C@H](CCSC)NC(=O)[C@H](CO)NC(=O)CNC1=O` [compound 1510]?
EC50: 0.05 nM; hNPR2 0% HSA. [EC50% rel CNP]: 139.2%

“{C18 diacid-γGlu-AEEA-AEEA}-GQAPGQAPGQAPGQAPGQAPGLSKGCFGLKLDRIGSMSGLGC-OH (disulfide 26-42) [compound 0230]” was tested. Which “hNPR2 0% HSA. [EC50% rel CNP]” value did it give?
Its value is 0.4%.

For “{C18 diacid}-EEEEE[AEEA][AEEA][AEEA][AEEA]ARKYKGAQKKGLSQGCFGLPLDRIGSLSGLGC (disulfide 25-41) [compound 1475]”, which “hNPR2 0% HSA. [EC50% rel CNP]” value is on record?
Its value is 46.5%.

For “{C18 diacid}-EGEGEGEGE[AEEA][AEEA]ARKYKGAQKKGLSQGCFGLPLDRIGSLSGLGC-OH (disulfide 27-43) [compound 1476]”, which “hNPR2 0% HSA. [EC50% rel CNP]” value is on record?
The value was 48.4%.
